The text below walks through data of ChEMBL document CHEMBL5518186, “Discovery of the cereblon-recruiting tubulin PROTACs effective in overcoming Taxol resistance in vitro and in vivo” (Eur J Med Chem, 2024).

The subject of series [1] is A549. The series is described as follows: Antiproliferative activity against human A549 cells incubated for 72 hrs. It counts as functional, cell-based. As to conditions: A549, 72 h.
Series [2] concerns A549/TR. In words: Induction of apoptosis in human A549/Taxol cells at 0.1 uM incubated for 48 hrs by Annexin V-FITC/PI staining based flow cytometry analysis. It counts as functional.
Series [3] concerns A549/TR. In words: Induction of cell cycle arrest in human A549/Taxol cells assessed as accumulation of cells at G0/G1 phase at 0.1 uM incubated for 24 hrs by PI staining based flow cytometry analysis (reference value: 77.86%). In kind it is functional. Background: A flow cytometer gives signals particle by particle.
The test system of series [4] is A549/TR. The series is described as follows: Induction of cell cycle arrest in human A549/Taxol cells assessed as accumulation of cells at S phase at 0.1 uM incubated for 24 hrs by PI staining based flow cytometry analysis (reference value: 2.85%). In kind it is functional.
Series [5] deals with A549/TR. In words: Induction of cell cycle arrest in human A549/Taxol cells assessed as accumulation of cells at G2/M phase at 0.1 uM incubated for 24 hrs by PI staining based flow cytometry analysis (reference value: 17.02%). In kind it is functional.
The next series has as its system U-937. The series is described as follows: Antiproliferative activity against human U-937 cells incubated for 72 hrs. In kind it is functional, cell-based. The settings on record: U-937, 72 h.
In a further series the test system is MCF7. In words: Antiproliferative activity against human MCF7 cells incubated for 72 hrs. In kind it is functional, cell-based. As to conditions: MCF7, 72 h.
The target of series [6] is T1, Protein cereblon/Tubulin beta-3 chain (Homo sapiens, UniProt Q13509+Q96SW2). In words: Protac activity at CRBN/beta3-tubulin in human A549 cells assessed as reduction in beta3-tubulin level at 0.01 to 1 uM incubated for 48 hrs by immunoblotting analysis. In kind it is cell-based. As to conditions: dose 0.01-1 µM. (In general: Immunoblotting shows a protein as a band on a membrane.)
Target sequence in this assay (Q13509 whole entry, looked up): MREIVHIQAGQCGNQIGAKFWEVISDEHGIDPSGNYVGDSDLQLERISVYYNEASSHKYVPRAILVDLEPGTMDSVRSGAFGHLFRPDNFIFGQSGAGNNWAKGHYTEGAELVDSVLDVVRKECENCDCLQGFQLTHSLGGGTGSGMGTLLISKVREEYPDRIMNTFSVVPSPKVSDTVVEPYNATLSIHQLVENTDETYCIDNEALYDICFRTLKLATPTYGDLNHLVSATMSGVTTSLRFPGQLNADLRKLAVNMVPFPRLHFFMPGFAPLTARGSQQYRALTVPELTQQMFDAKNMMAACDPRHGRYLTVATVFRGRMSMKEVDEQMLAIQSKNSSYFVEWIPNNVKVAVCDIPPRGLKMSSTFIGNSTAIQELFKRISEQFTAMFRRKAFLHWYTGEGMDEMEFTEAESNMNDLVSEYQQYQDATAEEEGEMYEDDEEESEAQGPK
Target sequence in this assay (Q96SW2 whole entry, looked up): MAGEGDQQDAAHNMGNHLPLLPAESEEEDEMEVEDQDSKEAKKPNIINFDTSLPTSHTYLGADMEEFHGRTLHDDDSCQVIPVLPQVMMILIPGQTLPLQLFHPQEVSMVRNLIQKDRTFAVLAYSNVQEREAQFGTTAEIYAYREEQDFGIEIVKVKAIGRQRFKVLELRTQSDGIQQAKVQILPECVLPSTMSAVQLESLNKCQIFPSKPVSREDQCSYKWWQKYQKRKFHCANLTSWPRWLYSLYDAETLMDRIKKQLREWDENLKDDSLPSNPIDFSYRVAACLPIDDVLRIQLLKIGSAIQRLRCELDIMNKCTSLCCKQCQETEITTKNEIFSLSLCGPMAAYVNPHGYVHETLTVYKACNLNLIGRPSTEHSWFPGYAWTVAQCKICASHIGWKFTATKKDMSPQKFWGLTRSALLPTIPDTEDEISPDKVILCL

In series [7] the target is Protein cereblon/Tubulin beta. The series is described as follows: (§1) Protac activity at CRBN/beta-tubulin in human A549 cells assessed as reduction in beta-tubulin level incubated for 48 hrs by immunoblotting analysis. It counts as cell-based.
Series [8] concerns the target T2, Protein cereblon/Tubulin beta (Homo sapiens) (UniProt P68371+Q9H4B7+Q13509+P04350+Q3ZCM7+P07437+Q13885+Q9BVA1+Q9BUF5+Q96SW2+A6NNZ2). Described as §1. It counts as cell-based.
The subject of the next series is MGC-803. The series is described as follows: Antiproliferative activity against human MGC-803 cells incubated for 72 hrs. In kind it is functional, cell-based. The settings on record: MGC-803, 72 h.
For series [9], the target named is T3, Protein cereblon-alpha tubulin (Homo sapiens) (UniProt P0DPH7+P68366+Q71U36+P68363+Q9BQE3+Q6PEY2+A6NHL2+Q9NY65+Q96SW2). In words: Protac activity at CRBN/alpha-tubulin in human A549 cells assessed as reduction in alpha-tubulin level at 0.01 to 1 uM incubated for 48 hrs by immunoblotting analysis. As to conditions: dose 0.01-1 µM. It counts as cell-based.
Series [10] deals with T1, Protein cereblon/Tubulin beta-3 chain. The series is described as follows: Protac activity at CRBN/beta3-tubulin in human A549 cells assessed as reduction in beta3-tubulin level incubated for 48 hrs by immunoblotting analysis. In kind it is cell-based.
Series [11] addresses Protein cereblon-alpha tubulin. The series is described as follows: (§2) Protac activity at CRBN/alpha-tubulin in human A549 cells assessed as reduction in alpha-tubulin level incubated for 48 hrs by immunoblotting analysis. In kind it is cell-based.
Series [12] concerns the target T3, Protein cereblon-alpha tubulin (Homo sapiens). Described as §2. It counts as cell-based.
In series [13] the target is Protein cereblon-alpha tubulin. In words: (§3) Protac activity at CRBN/alpha-tubulin in human A549/Taxol cells assessed as reduction in alpha-tubulin level incubated for 48 hrs by immunoblotting analysis. It counts as cell-based.
The target of series [14] is T3, Protein cereblon-alpha tubulin (Homo sapiens). The series is described as §3. In kind it is cell-based.
For series [15], the target named is T1, Protein cereblon/Tubulin beta-3 chain. In words: Protac activity at CRBN/beta3-tubulin in human A549/Taxol cells assessed as reduction in beta3-tubulin level incubated for 48 hrs by immunoblotting analysis. It counts as cell-based.
For a further series, the system named is HepG2. The series is described as follows: Antiproliferative activity against human HepG2 cells incubated for 72 hrs. As to conditions: HepG2, 72 h. It counts as functional, cell-based.
In another series the test system is HeLa. In words: Antiproliferative activity against human HeLa cells incubated for 72 hrs. It counts as functional, cell-based.
The target of series [16] is Protein cereblon/Tubulin beta. In words: (§4) Protac activity at CRBN/beta-tubulin in human A549/Taxol cells assessed as reduction in beta-tubulin level incubated for 48 hrs by immunoblotting analysis. In kind it is cell-based.
For series [17], the target named is T2, Protein cereblon/Tubulin beta (Homo sapiens). Described as §4. In kind it is cell-based.
The target is the same in series [18]. In words: Protac activity at CRBN/beta-tubulin in human A549 cells assessed as reduction in beta-tubulin level at 0.01 to 1 uM incubated for 48 hrs by immunoblotting analysis. It counts as cell-based. As to conditions: dose 0.01-1 µM.
The target of series [19] is T4, Estrogen receptor (Homo sapiens) (UniProt P03372).
T4 sequence (whole entry): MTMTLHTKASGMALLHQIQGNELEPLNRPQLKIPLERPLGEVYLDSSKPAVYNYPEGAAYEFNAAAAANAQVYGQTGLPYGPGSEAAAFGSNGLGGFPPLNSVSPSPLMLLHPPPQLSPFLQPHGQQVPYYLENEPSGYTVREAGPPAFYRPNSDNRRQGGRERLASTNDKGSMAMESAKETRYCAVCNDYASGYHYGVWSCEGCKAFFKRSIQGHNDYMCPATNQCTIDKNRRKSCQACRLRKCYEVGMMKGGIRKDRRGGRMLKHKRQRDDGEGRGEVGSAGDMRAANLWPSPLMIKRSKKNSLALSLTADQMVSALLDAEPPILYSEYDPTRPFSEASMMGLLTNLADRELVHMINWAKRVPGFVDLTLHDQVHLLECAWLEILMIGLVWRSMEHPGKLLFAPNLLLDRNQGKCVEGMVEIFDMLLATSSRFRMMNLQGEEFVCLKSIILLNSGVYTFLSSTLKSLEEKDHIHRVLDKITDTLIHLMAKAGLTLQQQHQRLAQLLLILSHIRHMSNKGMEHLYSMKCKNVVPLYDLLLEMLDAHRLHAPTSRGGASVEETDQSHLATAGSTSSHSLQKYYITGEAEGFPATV
The series is described as follows: Induction of ER degradation (unknown origin).

Series [20] deals with A549. In words: Induction of cell cycle arrest in human A549 cells assessed as accumulation of cells at G2/M phase at 0.02 uM incubated for 24 hrs by PI staining based flow cytometry analysis (reference value: 31.86%). In kind it is functional.
Series [21] concerns A549. In words: Antitumor activity against human A549 cells xenografted in nude mouse assessed as tumor growth inhibition at 10 mg/kg, ip administered once every 2 days for 23 days by Vernier caliper method. As to conditions: A549, 552 h, time 23 day, read-out: TGI. It counts as functional.
The test system of series [22] is A549. The series is described as follows: Antitumor activity against human A549 cells xenografted in nude mouse assessed as decrease in tumor volume at 10 mg/kg, ip administered once every 2 days for 23 days by Vernier caliper method. In kind it is functional, organism-based. The settings on record: time 23.0 day. For orientation: A xenograft is tissue or cells of one species grown in another, often human tumour cells in immunodeficient mice.

The subject of series [23] is A549/TR. In words: Antitumor activity against human A549/Taxol cells xenografted in nude mouse assessed as tumor growth inhibition at 10 mg/kg, ip administered once every 2 days for 23 days by Vernier caliper method. It counts as functional. The settings on record: 552 h, time 23 day, read-out: TGI.
Series [24] has as its system A549/TR. In words: Induction of cell cycle arrest in human A549/Taxol cells assessed as accumulation of cells at G0/G1 phase at 1 uM incubated for 24 hrs by PI staining based flow cytometry analysis (reference value: 77.86%). It counts as functional.
The test system of series [25] is A549/TR. In words: Induction of cell cycle arrest in human A549/Taxol cells assessed as accumulation of cells at G2/M phase at 1 uM incubated for 24 hrs by PI staining based flow cytometry analysis (reference value: 17.02%). It counts as functional.
Series [26] concerns A549. The series is described as follows: Induction of cell cycle arrest in human A549 cells assessed as accumulation of cells at S phase at 0.02 uM incubated for 24 hrs by PI staining based flow cytometry analysis (reference value: 2.85%). In kind it is functional.
In series [27] the test system is A549/TR. The series is described as follows: Induction of cell cycle arrest in human A549/Taxol cells assessed as accumulation of cells at S phase at 1 uM incubated for 24 hrs by PI staining based flow cytometry analysis (reference value: 2.85%). In kind it is functional.
Series [28] deals with A549/TR. In words: Inhibition of cell growth in human A549/Taxol cells incubated for 72 hrs by SRB method. It counts as functional, cell-based.
The nature of series [29]: Toxicity in nude mouse xenografted with human A549 cells assessed as body weight loss at 10 mg/kg, ip administered once every 2 days for 23 days and measured every 3 days. In kind it is organism-based. As to conditions: in vivo, 552 h, time 23 day.
Series [30] is described as follows: Toxicity in nude mouse xenografted with human A549/Taxol cells assessed as body weight loss at 10 mg/kg, ip administered once every 2 days for 23 days and measured every 3 days. It counts as organism-based, A549/TR. As to conditions: in vivo, 552 h, time 23 day.
Series [31] has as its system A549. In words: Antitumor activity against human A549 cells xenografted in nude mouse assessed as decrease in tumor weight at 10 mg/kg, ip administered once every 2 days for 23 days by Vernier caliper method. As to conditions: time 23.0 day. It counts as functional, organism-based.
The subject of series [32] is A549. The series is described as follows: Induction of cell cycle arrest in human A549 cells assessed as accumulation of cells at G0/G1 phase at 0.02 uM incubated for 24 hrs by PI staining based flow cytometry analysis (reference value: 66.75%). It counts as functional.
For series [33], the system named is A549/TR. In words: Induction of apoptosis in human A549/Taxol cells at 1 uM incubated for 48 hrs by Annexin V-FITC/PI staining based flow cytometry analysis. In kind it is functional.

Molecules are shown by their SMILES. The source made the active and inactive calls. The rule behind the calls is not given here.

One may read the IC50 as the point on the concentration scale where inhibition reaches its midpoint. Read a high IC50 as weaker potency. In the series on A549 [1], `COc1ccc(/C=C\c2cc(OC)c(OC)c(OC)c2)cc1O` [COMBRETASTATIN A4] registered an IC50 of 5 nM. For the same molecule, the Activity in the series with A549/TR [2] was 26.9%; with A549/TR [3], 21.17%; with A549/TR [4], 17.89%; in the series with A549/TR [5] it was 64.76%.

Turning to `COc1ccc(/C=C\c2cc(OC)c(OC)c(OC)c2)cc1OC(=O)CCCCNc1cccc2c1C(=O)N(C1CCC(=O)NC1=O)C2=O` (centres undefined), the IC50 with U-937 was 22 nM; with MCF7, 17 nM; in the series on A549 [1], 12 nM; with MGC-803 it was 8 nM; with HepG2, 6 nM; in the series on HeLa it was 23 nM. Moreover, the outcome in series [6], in [9] and in series [18] was Active. In addition, the DC50 worked out at 35 nM in series [7]; 883 nM in series [11]; 105 nM in series [13]; 18 nM in [15]; 9 nM in [16]. Also, the Activity result in series [8], in [10], in [12], in series [14], in [15] and in series [17] was “Dose-Dependent Effect” throughout.

The molecule `O=C1CC[C@H](N2Cc3cc(N4CCN(CC5CCN(c6ccc([C@@H]7c8ccc(O)cc8CC[C@@H]7c7ccccc7)cc6)CC5)CC4)ccc3C2=O)C(=O)N1` returned an Activity in series [19] of less than 89%.

Regarding `COc1ccc(/C=C\c2cc(OC)c(OC)c(OC)c2)cc1OC(=O)CCCCCNc1cccc2c1C(=O)N(C1CCC(=O)NC1=O)C2=O` (centres undefined), the IC50 worked out at 6 nM in the series with U-937; 17 nM with MCF7; 19 nM in the series on A549 [1]; 9 nM with MGC-803; 7 nM in the series on HepG2; 23 nM in the series with HeLa. Besides, the outcome in series [6], in series [9] and in series [18] was Active. The DC50 amounted to 165 nM in [7], 294 nM in [10], 114 nM in series [13] and 52 nM in series [16]. Also, the Activity entry in [8], in series [10], in series [12], in series [14], in series [15] and in series [17] was “Dose-Dependent Effect” each time.

Take `CC(=O)O[C@H]1C(=O)[C@@]2(C)[C@H]([C@H](OC(=O)c3ccccc3)[C@]3(O)C[C@H](OC(=O)[C@H](O)[C@@H](NC(=O)c4ccccc4)c4ccccc4)C(C)=C1C3(C)C)[C@]1(OC(C)=O)CO[C@@H]1C[C@@H]2O` [PACLITAXEL]: the Activity is 83.1% with A549 [20]; 20.43% in the series on A549/TR [24]; 74.23% with A549/TR [25]; 6.1% in the series with A549 [26]; 5.77% in the series on A549/TR [27]; “Non-Toxic” in series [29]. The Activity result was “Non-Toxic” in [30], 10.8% in the series with A549 [32] and 22.7% in the series on A549/TR [33]. The inhibition in vivo at 10 mg/kg in the series on A549 [21] came out at 28.5%; with A549/TR [23] it was 52%. Also, the result with A549 [22] and in the series with A549 [31] was Active. Further, the midpoint of inhibition in the series with A549/TR [28], the IC50, lay at 1030 nM.
